Activity calls are given as the source filed them. No cut-off for these calls is given here.
What was measured:
[1] = target: T1, Oxysterols receptor LXR-alpha (Homo sapiens, UniProt Q13133); assay: (§1) Agonist activity at LXRalpha ligand binding domain-mediated transcriptional activity in african green monkey CV1 cells co-transfected with Gal4-SRC1 by luciferase reporter assay; format: cell-based, CV-1
T1 sequence (Q13133 whole entry): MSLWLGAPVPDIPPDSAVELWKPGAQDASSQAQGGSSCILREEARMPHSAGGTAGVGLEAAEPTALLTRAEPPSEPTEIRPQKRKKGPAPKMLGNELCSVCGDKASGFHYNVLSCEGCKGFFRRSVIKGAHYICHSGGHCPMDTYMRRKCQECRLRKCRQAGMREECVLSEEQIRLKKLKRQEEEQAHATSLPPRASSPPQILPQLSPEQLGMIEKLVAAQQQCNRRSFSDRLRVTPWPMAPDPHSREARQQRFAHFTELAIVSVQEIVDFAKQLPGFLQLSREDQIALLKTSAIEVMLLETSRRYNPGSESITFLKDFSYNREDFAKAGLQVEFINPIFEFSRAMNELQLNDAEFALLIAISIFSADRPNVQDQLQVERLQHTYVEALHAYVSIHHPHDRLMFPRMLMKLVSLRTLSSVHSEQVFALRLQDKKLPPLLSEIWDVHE

[2] = target: T2, Oxysterols receptor LXR-beta (Homo sapiens, UniProt P55055); assay: Displacement of [N-methyl-3H]T1317 from human biotinylated LXRbeta LBD after 3 hrs by LEAD seeker binding assay
T2 sequence (P55055 whole entry, the tested form may be a part): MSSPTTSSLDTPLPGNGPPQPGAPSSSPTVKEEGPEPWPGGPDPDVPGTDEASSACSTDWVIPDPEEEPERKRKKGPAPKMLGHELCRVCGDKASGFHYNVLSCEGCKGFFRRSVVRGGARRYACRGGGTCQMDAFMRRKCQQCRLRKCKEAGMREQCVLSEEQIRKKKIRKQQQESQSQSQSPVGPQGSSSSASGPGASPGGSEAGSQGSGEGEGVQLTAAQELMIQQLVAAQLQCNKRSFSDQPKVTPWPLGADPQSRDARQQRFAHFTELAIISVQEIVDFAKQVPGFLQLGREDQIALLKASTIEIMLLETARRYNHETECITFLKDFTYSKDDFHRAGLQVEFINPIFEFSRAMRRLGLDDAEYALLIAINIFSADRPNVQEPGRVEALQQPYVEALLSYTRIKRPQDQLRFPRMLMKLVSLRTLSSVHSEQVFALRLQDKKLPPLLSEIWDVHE

HepG2 [3] = assay: Inhibition of SREBP-1c expression in human HepG2 cells; format: functional, cell-based
[4] = target: T2, Oxysterols receptor LXR-beta; conditions: CV-1
HepG2 [5] = assay: Inhibition of basal triglyceride level in human HepG2 cells
[6] = target: T3, Oxysterols receptor LXR-alpha (Homo sapiens) (UniProt Q13133); assay: as §1; format: cell-based; conditions: CV-1
T3 sequence (whole entry): T1 sequence (Q13133 whole entry)

HepG2 [7] = assay: Inhibition of GW-3965-induced SREBP-1c expression in human HepG2 cells; format: functional, cell-based
THP-1 = assay: Inhibition of ABCA1 expression in human THP1 cells; format: functional, cell-based
[8] = target: T2, Oxysterols receptor LXR-beta; assay: Agonist activity at LXRbeta ligand binding domain-mediated transcriptional activity in african green monkey CV1 cells co-transfected with Gal4-SRC1 by luciferase reporter assay; format: cell-based, CV-1

SMILES | EC50 [1] [nM] | IC50 [2] [nM] | also measured
Cc1cc(C)c(S(=O)(=O)N(Cc2ccc(-c3cccc(S(C)(=O)=O)c3)cc2)Cc2ccc(F)cc2Cl)c(C)c1 | 126 |  | 
CS(=O)(=O)c1cccc(-c2ccc(CN(Cc3c(F)cccc3Cl)S(=O)(=O)c3ccccc3)cc2)c1 | 6.31 |  | 
Cn1cnc(S(=O)(=O)N(Cc2ccc(-c3cccc(S(C)(=O)=O)c3)cc2)Cc2c(F)cccc2Cl)c1 | 79.4 |  | 
Fc1ccc(CN(Cc2ccccc2)Cc2ccc(-c3ccccc3)cc2)c(Cl)c1 |  | > 10000 | 
CS(=O)(=O)c1cccc(-c2ccc(CN(Cc3c(F)cccc3Cl)S(=O)(=O)C3CC3)cc2)c1 | 100 |  | 
Cc1ccccc1S(=O)(=O)N(Cc1ccc(-c2cccc(S(C)(=O)=O)c2)cc1)Cc1c(F)cccc1Cl | 12.6 |  | 
Cc1cc(C)c(S(=O)(=O)N(Cc2ccc(-c3cccc(S(C)(=O)=O)c3)cc2)Cc2c(F)cccc2Cl)c(C)c1 | 79.4 |  | 
CS(=O)(=O)c1cccc(-c2ccc(CN(Cc3ccc(F)cc3Cl)S(=O)(=O)c3ccccc3)cc2)c1 | 10 |  | 
Cc1cc(C)c(S(=O)(=O)N(Cc2ccc(-c3cccc(S(C)(=O)=O)c3)cc2)Cc2ccc(C(F)(F)F)o2)c(C)c1 |  | 31.6 | IC50 (HepG2 [3]): < 100 nM; pEC50 [4]: inactive; Activity (HepG2 [5]): Active; pEC50 [6]: inactive; Activity (HepG2 [7]): Dose-dependent effect; IC50 (THP-1): < 100 nM
O=C(c1ccccc1)N(Cc1ccc(-c2ccccc2)cc1)Cc1ccc(F)cc1Cl |  | > 10000 | 
O=C(O)Cc1cccc(OCCCN(Cc2cccc(C(F)(F)F)c2Cl)CC(c2ccccc2)c2ccccc2)c1 |  | 19.9 | EC50 [8]: 100 nM
